Source: patent publication US12162867B2, “Inhibitors of RNA helicase DHX9 and uses thereof” (ACCENT THERAPEUTICS, INC., priority 2022, dated 2024)
Where two headings read alike, the source gives them in different places.

Legend:
[1] = molecular target: T1, Human recombinant DHX9 protein (Homo sapiens, UniProt Q08211); assay: DHX9 ATPase assay (ADP-Glo); type: biochemical; conditions: for IC50: read-out: DHX9 Biochemical Inflection Point
T1 construct: purchased Viva

[2] = tested on: LS411N cells; assay: DHX9 cellular proliferation assay (CellTiter-Glo), LS411N (CRC-MSI); type: cell-based; conditions: LS411N, performed at Pharmaron, read-out: LS411N (CRC-MSI-H) Antiproliferative IC50
[3] = tested on: NCI-H747 cells; assay: DHX9 cellular proliferation assay (CellTiter-Glo), NCI-H747 (CRC-MSS); type: cell-based; conditions: performed at Pharmaron, read-out: H747 (CRC-MSS) Antiproliferative IC50
[4] = tested on: circBRIP1 in HCT116 cells; assay: DHX9 circBRIP1 cellular target engagement TaqMan Multiplex assay (qPCR); type: cell-based; conditions: read-out: DHX9 Cellular Target Engagement EC50
[5] = tested on: circBRIP1 in HCT116 cells; assay: DHX9 circBRIP1 cellular target engagement SYBR Green assay (qPCR); type: cell-based; conditions: Homo sapiens, HCT-116, circBRIP1, HCT116 cells; SyBr assay (marked ^+); read-out: DHX9 Cellular Target Engagement EC50
[6] = circBRIP1, HCT116 cells, * Taqman assay was used
[7] = Homo sapiens, NCI-H747, NCI-H747
[8] = Homo sapiens, HCT-116, circBRIP1, HCT116 cells, * Taqman assay was used
[9] = inflection point of dose-response curve
[10] = Homo sapiens, LS-411N, CRC-MSI-H
[11] = Homo sapiens, NCI-H747, NCI-H747, CRC-MSS
[12] = Homo sapiens, HCT-116, 72 h, circBRIP1, HCT116 cells, 72 hours, Taqman assay (marked *)

T1 sequence (Q08211 whole entry): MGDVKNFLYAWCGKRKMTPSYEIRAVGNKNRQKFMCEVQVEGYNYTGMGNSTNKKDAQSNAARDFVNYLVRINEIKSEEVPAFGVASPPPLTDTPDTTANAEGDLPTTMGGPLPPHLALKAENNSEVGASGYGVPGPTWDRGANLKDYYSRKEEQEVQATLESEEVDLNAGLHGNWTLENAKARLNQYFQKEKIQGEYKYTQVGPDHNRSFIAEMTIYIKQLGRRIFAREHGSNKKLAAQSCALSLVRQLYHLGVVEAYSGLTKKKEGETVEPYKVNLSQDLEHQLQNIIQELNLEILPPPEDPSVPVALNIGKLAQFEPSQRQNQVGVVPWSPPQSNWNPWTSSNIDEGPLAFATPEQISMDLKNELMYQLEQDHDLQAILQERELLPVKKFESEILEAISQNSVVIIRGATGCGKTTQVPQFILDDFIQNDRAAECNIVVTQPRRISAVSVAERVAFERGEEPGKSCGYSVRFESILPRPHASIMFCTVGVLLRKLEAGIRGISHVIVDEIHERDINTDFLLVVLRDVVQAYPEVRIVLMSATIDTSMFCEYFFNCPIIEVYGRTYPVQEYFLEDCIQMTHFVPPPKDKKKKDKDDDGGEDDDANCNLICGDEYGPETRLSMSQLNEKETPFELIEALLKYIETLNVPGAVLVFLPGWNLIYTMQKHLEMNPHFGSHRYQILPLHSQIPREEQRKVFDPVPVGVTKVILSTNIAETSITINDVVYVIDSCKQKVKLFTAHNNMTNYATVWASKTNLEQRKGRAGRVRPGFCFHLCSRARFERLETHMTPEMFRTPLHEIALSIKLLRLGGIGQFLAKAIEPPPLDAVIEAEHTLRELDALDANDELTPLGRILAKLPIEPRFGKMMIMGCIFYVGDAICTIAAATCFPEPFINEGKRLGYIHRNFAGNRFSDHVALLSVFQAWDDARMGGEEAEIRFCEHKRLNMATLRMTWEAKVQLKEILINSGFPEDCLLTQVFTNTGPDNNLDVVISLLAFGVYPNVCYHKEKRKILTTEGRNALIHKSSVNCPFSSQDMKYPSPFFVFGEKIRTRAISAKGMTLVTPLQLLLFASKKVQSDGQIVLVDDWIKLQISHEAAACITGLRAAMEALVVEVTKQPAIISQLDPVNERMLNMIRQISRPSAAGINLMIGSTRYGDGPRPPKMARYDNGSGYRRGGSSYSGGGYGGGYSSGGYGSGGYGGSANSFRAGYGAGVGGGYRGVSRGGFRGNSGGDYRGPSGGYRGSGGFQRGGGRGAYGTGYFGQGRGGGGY

IC50 [3, 7] [nM] | EC50 [4, 8] [nM] | SMILES | IC50 ([2]; Homo sapiens, LS-411N) [nM] | further results
4850 | 52.4 | Cn1cc(C(=O)Nc2cc(Cl)cc(NS(C)(=O)=O)c2)cc1-c1ncc(N2CC(F)C2)cc1F [Example 466] | 350 | –
7770 | 90 | Cc1cc(C(=O)Nc2cc(Cl)cc(NS(C)(=O)=O)c2)cn1-c1ncc(N2CC(C(F)(F)F)C2)cn1 [Example 694] | 80.4 | –
5890 | 17.7 | CCS(=O)(=O)Nc1cc(Cl)cc(NC(=O)c2cc(-c3ncc(N4CC(F)C4)cn3)c(C)s2)c1 [Example 509] | 73.1 | –
6720 | 17.6 | Cc1sc(C(=O)Nc2cc(Cl)cc(NS(C)(=O)=O)c2)cc1-c1ncc(N2CCC3(COC3)C2)cc1F [Example 512] | 107 | –
> 10000 | 45.3 | CN(C)CCOc1cnc(-c2cc(C(=O)Nc3cc(Cl)cc(NS(C)(=O)=O)c3)cn2C)c(F)c1 [Example 646] | 32.5 | –
3870 | 50.6 | Cc1cc(C(=O)Nc2cc(Cl)cc(NS(C)(=O)=O)c2)cn1-c1ncc(N2CC(F)(F)C2)cc1F [Example 420] | 353 | –

Continued, compound first:

SMILES | IC50 [3, 7] [nM] | EC50 [4, 8] [nM] | IC50 ([2]; Homo sapiens, LS-411N) [nM] | further results
CCS(=O)(=O)Nc1cc(Cl)cc(NC(=O)c2cc(-c3ncc(N4CC(F)(F)C4)cc3F)n(C)c2)c1 [Example 517] | – | – | – | DHX9 Biochemical Max Inhibition (%) [1]: 54.1%; IC50 [2]: 135 nM; IC50 ([3]; NCI-H747): 2220 nM; EC50 [4, 6]: 16.8 nM
CN1CC(Oc2ccc(-c3cc(C(=O)Nc4cc(Cl)cc(NS(C)(=O)=O)c4)cn3C)nc2)C1 [Example 612, N-(3-chloro-5-methanesulfonamidophenyl)-1-methyl-5-{5-[(1-methylazetidin-3-yl)oxy]pyridin-2-yl}pyrrole-3-carboxamide] | > 10000 | 21.2 | 281 | DHX9 Biochemical Max Inhibition (%) [1]: 70%; IC50 [1]: 10.1 nM
Cc1sc(C(=O)Nc2cc(Cl)cc(NS(C)(=O)=O)c2)cc1-c1ncccc1-c1cncc(F)c1 [Example 229] | – | – | – | DHX9 Biochemical Max Inhibition [1]: 72.5%; IC50 [1, 9]: 9.6 nM; IC50 [2, 10]: 51 nM; IC50 [3, 11]: > 10000 nM; EC50 [5]: 78.1 nM
CC(C)(C)OC(=O)NC1CC2(C1)CC(n1cc(C(=O)Nc3cc(Cl)cc(NS(C)(=O)=O)c3)cn1)C2 (centres unmarked) [Example 318] | – | – | – | IC50 [1, 9]: 207 nM; EC50 [5]: 4900 nM
CS(=O)(=O)Nc1cc(Cl)cc(NC(=O)c2cnn([C@H]3CCC[C@H]3Oc3ccccc3)c2)c1 (single isomer, unassigned) [Example 259] | – | – | – | IC50 [1, 9]: 1940 nM; EC50 [5]: > 10000 nM
Cc1sc(C(=O)Nc2cc(Cl)cc(NS(C)(=O)=O)c2)cc1-c1ncccc1OC(C)c1cc(F)cc(F)c1 (single isomer, unassigned) [Example 632] | > 10000 | 112 | 96.8 | DHX9 Biochemical Max Inhibition (%) [1]: 71.5%
Cn1cc(C(=O)Nc2cc(Cl)cc(NS(C)(=O)=O)c2)cc1-c1ncc(F)cc1CCc1cncc(F)c1 [Example 728] | – | – | – | DHX9 Biochemical Max Inhibition (%) [1]: 62.5%; EC50 [4, 6]: 1350 nM
CS(=O)(=O)Nc1cc(Cl)cc(NC(=O)c2cnn([C@@H]3CCCC[C@H]3O)c2)c1 (single isomer, unassigned) [Example 150, N-(3-chloro-5-(methylsulfonamido)phenyl)-1-(trans-2-hydroxycyclohexyl)-1H-pyrazole-4-carboxamide] | – | – | – | IC50 [1, 9]: 147 nM; EC50 [5]: 6560 nM
Cc1sc(C(=O)Nc2cc(Cl)cc(NS(C)(=O)=O)c2)cc1-c1ncc(N2CCC3(C2)CC3(F)F)cn1 (centres unmarked) [Example 491] | 2160 | 20.7 | 59.1 | DHX9 Biochemical Max Inhibition (%) [1]: 72%
CS(=O)(=O)Nc1cc(Cl)cc(NC(=O)c2cnn([C@H]3CCC[C@H]3c3ccccc3)c2)c1 (single isomer, unassigned) [Example 260] | – | – | – | IC50 [1, 9]: 715 nM; EC50 [5]: > 10000 nM
Cc1ncc(OCc2cc(F)cc(F)c2)c(-c2cc(C(=O)Nc3cc(Cl)cc(NS(C)(=O)=O)c3)cn2C)n1 [Example 734] | 6170 | 3 | 10.6 | –
Cc1cc(C(=O)Nc2cc(Cl)cc(NS(C)(=O)=O)c2)cn1-c1ncc(OC(C)(C)C)cn1 [Example 664] | > 10000 | 71.9 | 163 | –
Cc1cc(N2CC(F)(F)C2)cnc1-c1cc(C(=O)Nc2cc(Cl)cc(NS(C)(=O)=O)c2)sc1C [Example 537] | 6530 | 30 | 82.8 | –
COc1cnc(-c2cc(C(=O)Nc3cc(Cl)cc(NS(C)(=O)=O)c3)cn2C)c(F)c1 [Example 454] | 5810 | 18.2 | 218 | –
Cc1sc(C(=O)Nc2cc(Cl)cc(NS(C)(=O)=O)c2)cc1-c1ncc(C2(F)COC2)cn1 [Example 680] | 8760 | 31 | 208 | –
CCS(=O)(=O)Nc1cc(Cl)cc(NC(=O)c2cc(-c3ncc(OC)cn3)c(C)s2)c1 [Example 353] | – | – | – | IC50 [2, 10]: 111 nM; IC50 [3, 11]: 8490 nM; EC50 [4, 12]: 94 nM
Cn1cc(C(=O)Nc2cc(Cl)cc(NS(C)(=O)=O)c2)cc1-c1ncc(N2CCCC(F)(F)C2)cc1F [Example 483] | 1710 | 61 | 101 | –
COC1CN(c2ccc(-c3cc(C(=O)Nc4cc(Cl)cc(NS(C)(=O)=O)c4)cn3C)nc2)C1 [Example 465] | > 10000 | 35.2 | 115 | –
Cn1cc(C(=O)Nc2cc(Cl)cc(NS(C)(=O)=O)c2)cc1-c1ccc(N2CC(C)(F)C2)cn1 [Example 688] | 6360 | 47.5 | 122 | –
CCS(=O)(=O)Nc1cc(Cl)cc(NC(=O)c2cc(-c3ncc(F)cc3F)c(C)s2)c1 [Example 347] | – | – | – | IC50 [2, 10]: 160 nM; IC50 [3, 11]: > 10000 nM; EC50 [4, 12]: 96.8 nM
COC(=O)N1CCN(c2cnc(-c3cc(C(=O)Nc4cc(Cl)cc(NS(C)(=O)=O)c4)sc3C)c(C)c2)CC1 [Example 601] | > 10000 | 106 | 64.5 | –
